From PubChem BioAssay (NCI)
Where “and” joins values, the source holds several entries; their conditions need not be identical. Equal values may be shown once.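 The compound was tested at five concentrations on cells cultured in 96-well plates, with a 48-hour exposure period. GI50: concentration for 50% inhibition of growth. TGI: concentration producing complete growth inhibition.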

Tests used:
Experiment in all cases: growth of human tumour cells (NCI), 48 h
SF-268 CNS = system: SF-268 CNS
DU-145 prostate = system: DU-145 prostate
A549 NSCLC = system: A549 NSCLC
T-47D breast = system: T-47D breast
SK-OV-3 ovarian = system: SK-OV-3 ovarian
SNB-19 CNS = system: SNB-19 CNS
UACC-62 melanoma = system: UACC-62 melanoma
SNB-75 CNS = system: SNB-75 CNS
RXF 393 renal = system: RXF 393 renal
UO-31 renal = system: UO-31 renal

SMILES	TGI (SF-268 CNS)	TGI (DU-145 prostate)	TGI (A549 NSCLC)	TGI (T-47D breast)	TGI (SK-OV-3 ovarian)	TGI (SNB-19 CNS)	TGI (UACC-62 melanoma)	TGI (SNB-75 CNS)	TGI (RXF 393 renal)	TGI (UO-31 renal)	GI50 (SF-268 CNS)	GI50 (DU-145 prostate)	GI50 (A549 NSCLC)	GI50 (T-47D breast)	GI50 (SK-OV-3 ovarian)	GI50 (SNB-19 CNS)	GI50 (UACC-62 melanoma)	GI50 (SNB-75 CNS)	GI50 (UO-31 renal)	GI50 (RXF 393 renal)
O=C(O)C(Cc1cccs1)C(=O)O	> 100 µM	> 100 µM	> 100 µM	> 100 µM	> 100 µM	> 100 µM	> 100 µM	> 100 µM	> 100 µM	> 100 µM										
CN(C)Cc1cc(C(=O)O)cc(CN(C)C)c1O	> 100 µM	> 100 µM	> 100 µM	> 100 µM	> 100 µM	> 100 µM	> 100 µM	> 100 µM	> 100 µM	> 100 µM										
CC(NCCS(=O)(=O)O)C(=O)O (stereo unspecified)	> 100 µM		> 100 µM		> 100 µM	> 100 µM	> 100 µM	> 100 µM	> 100 µM	> 100 µM										
COc1ccc(-c2cn3ccnc3c(-c3ccc4ncn(C5CCCCC5)c4c3)n2)cc1	> 100 µM	> 100 µM	> 100 µM	4.5 µM	7.64 µM	> 100 µM	> 100 µM	> 100 µM		> 100 µM	2.38 µM	1.07 µM	1.83 µM	0.761 µM	0.508 µM	0.836 µM	0.434 µM	0.733 µM	1.35 µM	
CCCCCCCCCC[C@@H](O)[C@@H]1CC[C@@H]([C@@H]2CC[C@@H]([C@@H](O)CCCCCCCCCCC(O)CC3=CC(C)OC3=O)O2)O1 (stereo partly specified)	> 10 µM	> 10 µM	> 10 µM	> 10 µM	> 10 µM		> 10 µM	> 10 µM	> 10 µM	> 10 µM										
Cc1c2cc[n+](C)cc2c(C)c2c1[nH]c1ccccc12	1.87 µM and 1.88 µM	24.9 µM	5.55 µM and 8.83 µM	0.832 µM	64.7 µM and 64.2 µM	1.09 µM and 1.3 µM	22.5 µM and 27.4 µM	0.755 µM and 0.779 µM	62 µM and 36.7 µM	> 93.4 µM and 68.7 µM										
C=C[C@H]1CN2CC[C@H]1C[C@@H]2[C@@H](O)c1ccnc2ccccc12	> 100 µM	> 100 µM	> 100 µM	> 100 µM	> 100 µM	> 100 µM	> 100 µM	> 100 µM	> 100 µM	> 100 µM										
NCCCCCCNc1cc(-c2cccc(OC(F)(F)F)c2)nc2ccc(N3CCCC3)cc12		2.94 µM						2.94 µM	2.52 µM			1.55 µM						1.57 µM		1.22 µM
